Experimental findings from US20100152188A1, “Novel Heterocyclic Compounds” (priority 2005, published 2010) are described below.

Each structure is given as a SMILES string. Where two headings read alike, the source gives them in different places.

One test relates to NCIH460. Put plainly: Anti-cancer screen (MTT), NCIH460. It is filed as cell-based. The settings on record: Homo sapiens, NCI-H460, 48 hours with compound, tested at 0.01-100 µM. As to the method: (§1) Experimental drugs are screened for anti-cancer activity in three cell lines for their GI50, TGI and LC50 values (using five concentrations for each compound). The cell lines are maintained in DMEM containing 10% fetal bovine serum. 96 well micro titer plates are inoculated with cells in 100 µL for 24 hours at 37° C., 5% CO2, 95% air and 100% relative humidity. 5000 HCT 116 cells/well, 5000 NCIH 460 cells/well and 5000 U251 cells/well are plated. A separate plate with these cell lines is also inoculated to determine cell viability before the addition of the compounds (T0).
(§2) Following 24-hour incubation, experimental drugs are added to the 96 well plates. Each plate contains one of the above cell lines and the following in triplicate: five different concentrations (0.01, 0.1, 1, 10 and 100 µM) of four different compounds, appropriate dilutions of a cytotoxic standard and control (untreated) wells. Compounds are dissolved in DMSO to make 20 mM stock solutions on the day of drug addition and frozen at −20° C. Serial dilutions of these 20 mM stock solutions are made in complete growth medium such that 100 µL of these drug solutions in medium, of final concentrations equaling 0.01, 0.1, 1, 10 and 100 µM can be added to the cells in triplicate. Standard drugs whose anti-cancer activity has been well documented and which are regularly used are doxorubicin and SAHA.
(§3) For T0 measurement, 24 hours after seeding the cells, 10 µL of 3-(4,5-Dimethyl-2-thiazolyl)-2,5-diphenyl-2H-tetrazolium (MTT) solution per well is added and incubation carried out for 3 hours at 37° C., 5% CO2, 95% air and 100% relative humidity, protected from light. Cells incubated with compounds for 48 hours are treated similarly except with the addition of 20 µl MTT solution per well and a subsequent incubation under the same conditions. After 3 hours of MTT incubation, well contents are aspirated carefully followed by addition of 150 µL DMSO per well. Plates are agitated to ensure solution of the formazan crystals in DMSO and absorbance read at 570 nm.
(§4) Percent growth is calculated for each compound's concentration relative to the control and zero measurement wells (T0; viability right before compound addition). If a test well's O.D. value is greater than the T0 measurement for that cell line
(§5) %Growth=(test−zero)/(control−zero)×100
(§6) If a test well's O.D. value is lower than the T0 measurement for that cell line, then,
(§7) %Growth=(test−zero)/zero×100

For test [1], the system named is NCIH460, HCT116, MDAMB-231/U 251. Nature of the test: Anti-cancer screen, mean GI50 over the cell lines. The format is cell-based. The settings on record: in µM. As to the method:
as §1, §2, §3, §4

The next test relates to HDAC. Put plainly: HDAC inhibition. It is filed as biochemical. The settings on record: for HDAC Inhibition 1 μM: compound at 1 μM; for HDAC Inhibition 10 μM: compound at 10 μM.
The next test relates to MDAMB-231/U 251. Put plainly: Anti-cancer screen (MTT), MDAMB-231/U 251. It is filed as cell-based. The settings on record: for CC50: read-out: MDAMB-231/U 251 LC50. As to the method: as §1, §2, §3, §4, §5, §6, §7
A further test concerns HCT116. Nature of the test: Anti-cancer screen (MTT), HCT116. The settings on record: Homo sapiens, HCT-116, 48 hours with compound, tested at 0.01-100 µM; for CC50: read-out: HCT116 LC50. It is filed as cell-based. As to the method: as §1, §2, §3, §4, §5, §6, §7
Where [2] appears, read: 48 hours with compound, MTT, tested at 0.01-100 µM.

For orientation: GI50 means the concentration that inhibits growth by half. What is called LC50 is the concentration lethal to half of the exposed cells or organisms.

Regarding `O=C(Cc1csc(NC(=O)OCc2cccnc2)n1)NO` [Example 1, pyridin-3-ylmethyl{4-[2-(hydroxyamino)-2-oxoethyl]-1,3-thiazol-2-yl}carbamate], in the test with NCIH460, the GI50 was 0.01 µM, the IC (TGI) came out at 0.5 µM and the 50% lethal concentration (LC50) is > 100 µM. Further, the “Mean GI50” value in test [1] worked out at 0.4. In the test on HDAC, the “HDAC Inhibition 1 μM” value amounted to 1.3 and the “HDAC Inhibition 10 μM” value was determined as 31.5. Further, in the test with MDAMB-231/U 251 (48 h), the CC50 was > 100 µM. In the test with MDAMB-231/U 251 (setting [2]), the concentration for 50% growth inhibition (GI50) stood at 1 µM and the IC (TGI) was > 100 µM. Besides, in the test with HCT116, the GI50 amounted to 0.25 µM, the IC (TGI) worked out at 4 µM and the LC50 (concentration giving 50% net cell kill relative to T0) was > 100 µM.

Turning to `O=C(Cc1csc(NC(=O)OCc2cccs2)n1)NO` [Example 2, 2-Thienylmethyl{4-[2-(hydroxyamino)-2-oxoethyl]-1,3-thiazol-2-yl}carbamate], in the test on NCIH460, the GI50 is > 100 µM, the IC (TGI) is > 100 µM and the LC50 was > 100 µM. Also, the “Mean GI50” value in test [1] is on record as >100. Further, in the test with HDAC, the “HDAC Inhibition 1 μM” value was determined as 0.8 and the “HDAC Inhibition 10 μM” value came out at 22.42. For the same compound, the CC50 with MDAMB-231/U 251 (48 h) is > 100 µM. In addition, in the test with MDAMB-231/U 251 (setting [2]), the GI50 is > 100 µM and the IC (TGI) is > 100 µM. For the same compound, in the test on HCT116, the GI50 was > 100 µM, the IC (TGI) is > 100 µM and the LC50 (concentration giving 50% net cell kill relative to T0) was > 100 µM.

For the compound `O=C(Cc1csc(NC(=O)OCc2ccsc2)n1)NO` [Example 3, 3-Thienylmethyl{4-[2-(hydroxyamino)-2-oxoethyl]-1,3-thiazol-2-yl}carbamate], in the test with NCIH460, the 50% growth inhibitory concentration (GI50) turned out to be 30 µM, the IC (TGI) was > 100 µM and the LC50 was > 100 µM. Moreover, in test [1], the “Mean GI50” value was 31. Also, in the test on HDAC, the “HDAC Inhibition 1 μM” value is −4.03 and the “HDAC Inhibition 10 μM” value is listed as 22.89. In addition, the CC50 in the test with MDAMB-231/U 251 (48 h) is > 100 µM. Moreover, in the test on MDAMB-231/U 251 (setting [2]), the GI50 was 32 µM and the IC (TGI) is > 100 µM. Moreover, in the test with HCT116, the GI50 was > 100 µM, the IC (TGI) was > 100 µM and the LC50 (concentration giving 50% net cell kill relative to T0) was > 100 µM.

In the case of `O=C(Cc1csc(NC(=O)OCc2ccncc2)n1)NO` [Example 4, Pyridin-4-ylmethyl{4-[2-(hydroxyamino)-2-oxoethyl]-1,3-thiazol-2-4.yl}carbamate], in the test on NCIH460, the GI50 was found to be 20 µM, the IC (TGI) is > 100 µM and the LC50 is > 100 µM. The “Mean GI50” value in test [1] stood at 13. Also, in the test on HDAC, the “HDAC Inhibition 1 μM” value was 5.6 and the “HDAC Inhibition 10 μM” value was 38.13. The CC50 with MDAMB-231/U 251 (48 h) was > 100 µM. Besides, in the test on MDAMB-231/U 251 (setting [2]), the 50% growth inhibitory concentration (GI50) is 6 µM and the IC (TGI) was > 100 µM. Besides, in the test with HCT116, the GI50 is > 100 µM, the IC (TGI) is > 100 µM and the LC50 (concentration giving 50% net cell kill relative to T0) was > 100 µM.

`O=C(Cc1csc(NC(=O)OCC2COc3ccccc3O2)n1)NO` (stereo not drawn) [Example 5, 2,3-Dihydro-1,4-benzodioxin-2-ylmethyl{4-[2-(hydroxyamino)-2-oxoethyl]1,3-thiazol-2-yl}carbamate]: in the test on NCIH460, the concentration for 50% growth inhibition (GI50) came out at 18 µM, the IC (TGI) came out at 76 µM and the 50% lethal concentration (LC50) was > 100 µM. In addition, in test [1], the “Mean GI50” value is 21.3. In the test on HDAC, the “HDAC Inhibition 1 μM” value worked out at 0.65 and the “HDAC Inhibition 10 μM” value is 29.29. Also, the CC50 in the test with MDAMB-231/U 251 (48 h) is > 100 µM. In addition, in the test on MDAMB-231/U 251 (setting [2]), the GI50 worked out at 6 µM and the IC (TGI) was determined as 78 µM. In the test on HCT116, the GI50 came out at 40 µM, the IC (TGI) was 80 µM and the LC50 (concentration giving 50% net cell kill relative to T0) is > 100 µM.

Regarding `O=C(Cc1csc(NC(=O)OCc2ccc(Br)s2)n1)NO` [Example 6, (5-Bromo-2-thienyl)methyl{4-[2-(hydroxyamino)-2-oxoethyl]-1,3-thiazol-2-yl}carbamate], in the test with NCIH460, the GI50 was determined as 2 µM, the IC (TGI) is 80 µM and the LC50 was > 100 µM. The “Mean GI50” value in test [1] was 24. In addition, in the test with HDAC, the “HDAC Inhibition 1 μM” value is on record as 8.8 and the “HDAC Inhibition 10 μM” value was 47.27. Further, in the test with MDAMB-231/U 251 (setting [2]), the GI50 came out at 5 µM, the IC (TGI) is 82 µM and the CC50 is > 100 µM. For the same compound, in the test with HCT116, the 50% growth inhibitory concentration (GI50) was 65 µM, the IC (TGI) was > 100 µM and the CC50 is > 100 µM.

Consider `O=C(Cc1csc(NC(=O)OCc2cc(Br)cs2)n1)NO` [Example 7, (4-Bromo-2-thienyl)methyl{4-[2-(hydroxyamino)-2-oxoethyl]-1,3-thiazol-2-yl}carbamate], for which, in the test on NCIH460, the GI50 came to 10 µM, the IC (TGI) worked out at 70 µM and the LC50 is > 100 µM. In addition, in test [1], the “Mean GI50” value was determined as 16.7. In addition, in the test on HDAC, the “HDAC Inhibition 1 μM” value amounted to 7.07 and the “HDAC Inhibition 10 μM” value is given as 46.41. In addition, in the test on MDAMB-231/U 251 (setting [2]), the GI50 amounted to 15 µM, the IC (TGI) turned out to be 74 µM and the CC50 was > 100 µM. In the test with HCT116, the GI50 is 25 µM, the IC (TGI) was determined as 80 µM and the CC50 is > 100 µM.

Take `Cc1ncsc1COC(=O)Nc1nc(CC(=O)NO)cs1` [Example 8, (4-Methyl-1,3-thiazol-5-yl)methyl{4-[2-(hydroxyamino)-2-oxoethyl]-1,3-thiazol-2-yl}carbamate]: in the test on NCIH460, the GI50 was > 100 µM, the IC (TGI) is > 100 µM and the 50% lethal concentration (LC50) is > 100 µM. Also, in test [1], the “Mean GI50” value is >100. In the test on HDAC, the “HDAC Inhibition 1 μM” value came out at 0.96 and the “HDAC Inhibition 10 μM” value was found to be 17.80. Besides, in the test with MDAMB-231/U 251 (setting [2]), the concentration for 50% growth inhibition (GI50) was 0.5 µM, the IC (TGI) is > 100 µM and the CC50 is > 100 µM. In the test with HCT116, the concentration for 50% growth inhibition (GI50) was > 100 µM, the IC (TGI) is > 100 µM and the CC50 is > 100 µM.

For the compound `O=C(NCc1ccc(C(=O)Nc2ncc([N+](=O)[O-])s2)cc1)OCc1cccs1` [Example 69, 2-thienylmethyl(4-{[(5-nitro-1,3-thiazol-2yl)amino]carbonyl}benzyl)carbamate], the “Mean GI50” value in test [1] is reported as 40.33. In the test on HDAC, the “HDAC Inhibition 1 μM” value worked out at 13.14 and the “HDAC Inhibition 10 μM” value was 12.38.

On to `O=C(NCc1ccc(C(=O)NOCc2ccccc2)cc1)OCc1cccs1` [Example 73, 2-Thienylmethyl(4-{[(benzyloxy)amino]carbonyl}benzyl)carbamate], for which, in test [1], the “Mean GI50” value is >100. In addition, in the test on HDAC, the “HDAC Inhibition 1 μM” value turned out to be 6.60 and the “HDAC Inhibition 10 μM” value came to 12.42.

With `COC(=O)ON(C)C(=O)c1ccc(CNC(=O)OCc2cccs2)cc1` [Example 85, 2-Thienylmethyl[4-({[(methoxycarbonyl)oxy](methyl)amino}carbonyl)benzyl]carbamate], the “Mean GI50” value in test [1] stood at 10.67. Further, in the test with HDAC, the “HDAC Inhibition 1 μM” value is recorded as 3.18 and the “HDAC Inhibition 10 μM” value was 7.89.

Turning to `COC(=O)N(OCc1ccccc1)C(=O)c1ccc(CNC(=O)OCc2cccs2)cc1` [Example 86, 2-Thienylmethyl[4-({(N-benzyloxy)(N-methoxycarbonyl)amino}carbonyl)benzyl]carbamate], the “Mean GI50” value in test [1] is >100. In the test with HDAC, the “HDAC Inhibition 1 μM” value came out at 5.98 and the “HDAC Inhibition 10 μM” value was −10.22.

As to `O=C(CCCCCNC(=O)Cc1csc(NC(=O)OCc2ccncc2)n1)NO` [Example 98, Pyridin-4-ylmethyl[4-(2-{[6-(hydroxyamino)-6-oxohexyl]amino}-2-oxoethyl)-1,3-thiazol-2-yl]carbamate], the “Mean GI50” value in test [1] is reported as >100. Further, in the test on HDAC, the “HDAC Inhibition 1 μM” value is reported as 94.01 and the “HDAC Inhibition 10 μM” value was 129.59.

For `N#Cc1ccc(NC(=O)Nc2cccc(NC(=O)c3ccc(CNC(=O)OCc4cccs4)cc3)c2)cc1` [Example 105, 2-Thienylmethyl[4-({[3-({[(4-cyanophenyl)amino]carbonyl}amino)phenyl]amino}carbonyl)benzyl]carbamate], the “Mean GI50” value in test [1] came to 6.73. Besides, in the test with HDAC, the “HDAC Inhibition 1 μM” value stood at 11.02 and the “HDAC Inhibition 10 μM” value is listed as 12.74.
